Laboratory results as given in ChEMBL document CHEMBL3638901, “Thienopyrazole derivative having PDE7 inhibitory activity” (2014).

Molecular target: High affinity 3',5'-cyclic-AMP phosphodiesterase 7A (Homo sapiens, UniProt Q13946)
Assay: Inhibition Assay: The PDE 7 (phosphodiesterase VII) inhibiting effect of the compounds of the present invention was performed by the following method, which was modified assay method described in Biochemical. Pharmacol. 48(6), 1219-1223 (1994). (1) The active fraction of PDE 7 (phosphodiesterase VII) was obtained. That is, MOLT-4 (obtainable from ATCC as ATCC No. CRL-1582), which was cell line of human acute lymphoblastic […] T cells, was incubated in RPMI1640 culture medium containing 10% fetal bovine serum to obtain 5x10^8 MOLT-4 cells. The cells were collected by centrifugation and suspended with 10 mL of buffer solution A [25 mM of tris-HCl, 5 mM of 2-mercaptoethnol, 2 mM of benzamidine, 2 mM of EDTA, 0.1 mM of 4-(2-aminoethyl)benzensulfonyl hydrochloride; pH 7.5], then homogenized by Polytron homogenizer. The homogenate were centrifuged under 25,000xG for 10 minutes at 4 C. The supernatant was separated and thus obtained supernatant was further centrifuged under 100,000xG for 60 minutes.

High affinity 3',5'-cyclic-AMP phosphodiesterase 7A, sequence (Q13946 whole entry): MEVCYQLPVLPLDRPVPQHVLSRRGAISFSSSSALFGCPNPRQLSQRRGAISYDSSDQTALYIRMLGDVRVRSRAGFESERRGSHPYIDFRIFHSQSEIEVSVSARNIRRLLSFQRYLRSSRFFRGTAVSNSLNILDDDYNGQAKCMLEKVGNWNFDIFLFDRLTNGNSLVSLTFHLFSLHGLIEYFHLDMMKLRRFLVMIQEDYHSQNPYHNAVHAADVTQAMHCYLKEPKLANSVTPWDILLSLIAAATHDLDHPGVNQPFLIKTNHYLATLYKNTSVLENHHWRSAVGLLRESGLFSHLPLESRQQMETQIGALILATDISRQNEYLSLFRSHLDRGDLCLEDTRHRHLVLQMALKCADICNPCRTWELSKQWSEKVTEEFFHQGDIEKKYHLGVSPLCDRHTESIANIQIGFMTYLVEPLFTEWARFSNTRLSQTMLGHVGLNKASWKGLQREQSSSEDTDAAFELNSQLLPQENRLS

Row | SMILES | IC50 [nM]
1 | Cc1nn(C2CCCCC2)c2sc(C(=O)Nc3ccc(N4CCN(C)CC4)c(Cl)c3)cc12 | 55
2 | Cc1nn(C2CCOCC2)c2sc(C(=O)N[C@H]3CC[C@H](N4CCOCC4)CC3)cc12 | 24

More lines, now with the values ahead:

Row | IC50 [nM] | SMILES
3 | 85 | COc1cc(NC(=O)c2cc3c(C)nn(C4CCCCC4)c3s2)ccc1C(=O)N1CCN(C)CC1
4 | 65 | COc1cc(NC(=O)c2cc3c(C)nn(C4CCCCC4)c3s2)ccc1C(=O)N1CCC(O)CC1
5 | 34 | Cc1nn(C2CCCCC2)c2sc(C(=O)Nc3ccc(N4CCOCC4)cc3)cc12
6 | 13 | Cc1nn(C2CCCCC2)c2sc(C(=O)NC3CC[C@@H](C(=O)N(C)C)C3)cc12 (stereo partly specified)
